Data taken from ChEMBL document CHEMBL2390897, “3-Anhydro-6-hydroxy-ophiobolin A, a new sesterterpene inhibiting the growth of methicillin-resistant Staphylococcus aureus and inducing the cell death by apoptosis on K562, from the phytopathogenic fungus Bipolaris oryzae” (Bioorg Med Chem Lett, 2013).
Values after ≈ are worked out from the molar mass of the structure shown. Active and inactive are the calls of the source. No cut-off for these calls is given here.

Experiments:
Candida albicans = test: Antimicrobial activity against Candida albicans SC5314; type: functional
HepG2 = test: Cytotoxicity against human HepG2 cells after 48 hrs by MTT assay; type: functional, cell-based; conditions: HepG2, 48 h
K562 [1] = test: Cytotoxicity against human K562 cells after 48 hrs by MTT assay; type: functional, cell-based; conditions: K562, 48 h
Staphylococcus aureus [2] = test: Antimicrobial activity against Staphylococcus aureus ATCC 6538; type: functional
Bacillus subtilis = test: Antimicrobial activity against Bacillus subtilis ATCC 6051; type: functional
Staphylococcus aureus [3] = test: Antimicrobial activity against methicillin-resistant Staphylococcus aureus; type: functional
Pseudomonas aeruginosa = test: Antimicrobial activity against Pseudomonas aeruginosa PAO1; type: functional
K562 [4] = test: Induction of apoptosis in human K562 cells assessed as viable cells at 4 ug/ml after 5 hrs using annexin-V-FITC and propidium iodide staining by flow cytometry (reference value: 99.86%); type: functional; conditions: K562, 5 h, read-out: Activity
K562 [5] = test: Induction of apoptosis in human K562 cells assessed as cell survival at 0.75 ug/ml after 5 hrs using annexin-V-FITC and propidium iodide staining by flow cytometry (reference value: 97.96%); type: functional; conditions: K562, 5 h, read-out: Activity
K562 [6] = test: Induction of apoptosis in human K562 cells assessed as cell survival at 0.5 ug/ml after 5 hrs using annexin-V-FITC and propidium iodide staining by flow cytometry (reference value: 97.96%); type: functional; conditions: K562, 5 h, read-out: Activity
K562 [7] = test: Induction of apoptosis in human K562 cells assessed as viable cells at 2 ug/ml after 5 hrs using annexin-V-FITC and propidium iodide staining by flow cytometry (reference value: 99.86%); type: functional; conditions: K562, 5 h, read-out: Activity
K562 [8] = test: Induction of apoptosis in human K562 cells assessed as cell survival at 1 ug/ml after 6 hrs using annexin-V-FITC and propidium iodide staining by flow cytometry (reference value: 97.89%); type: functional; conditions: K562, 6 h, read-out: Activity
K562 [9] = test: Induction of apoptosis in human K562 cells assessed as cell survival at 2 ug/ml after 5 hrs using annexin-V-FITC and propidium iodide staining by flow cytometry (reference value: 97.96%); type: functional; conditions: K562, 5 h, read-out: Activity
K562 [10] = test: Induction of apoptosis in human K562 cells assessed as cell survival at 1 ug/ml after 2 hrs using annexin-V-FITC and propidium iodide staining by flow cytometry (reference value: 97.89%); type: functional; conditions: K562, 2 h, read-out: Activity
K562 [11] = test: Induction of apoptosis in human K562 cells assessed as cell survival at 0.25 ug/ml after 5 hrs using annexin-V-FITC and propidium iodide staining by flow cytometry (reference value: 97.96%); type: functional; conditions: K562, 5 h, read-out: Activity
K562 [12] = test: Induction of apoptosis in human K562 cells assessed as viable cells at 0.5 ug/ml after 5 hrs using annexin-V-FITC and propidium iodide staining by flow cytometry (reference value: 99.86%); type: functional; conditions: K562, 5 h, read-out: Activity
K562 [13] = test: Induction of apoptosis in human K562 cells assessed as effect on Bcl-XL expression at 2 ug/ml after 4 hrs by Western blot analysis; type: functional, cell-based
K562 [14] = test: Induction of apoptosis in human K562 cells assessed as viable cells at 1 ug/ml after 5 hrs using annexin-V-FITC and propidium iodide staining by flow cytometry (reference value: 99.86%); type: functional; conditions: K562, 5 h, read-out: Activity
K562 [15] = test: Induction of apoptosis in human K562 cells assessed as down regulation of c-Myc at 2 ug/ml after 3 hrs by Western blot analysis; type: functional, cell-based
K562 [16] = test: Induction of apoptosis in human K562 cells assessed as cell survival at 1 ug/ml after 5 hrs using annexin-V-FITC and propidium iodide staining by flow cytometry (reference value: 97.96%); type: functional; conditions: K562, 5 h, read-out: Activity
K562 [17] = test: Induction of apoptosis in human K562 cells assessed as cell survival at 4 ug/ml after 5 hrs using annexin-V-FITC and propidium iodide staining by flow cytometry (reference value: 97.96%); type: functional; conditions: K562, 5 h, read-out: Activity
K562 [18] = test: Induction of apoptosis in human K562 cells assessed as viable cells after 3 hrs using annexin-V-FITC and propidium iodide staining by flow cytometry (reference value: 93.69%); type: functional, cell-based
K562 [19] = test: Induction of apoptosis in human K562 cells assessed as viable cells at 2 ug/ml using annexin-V-FITC and propidium iodide staining by flow cytometry (reference value: 93.69%); type: functional, cell-based; conditions: TDE = time-dependent effect
K562 [20] = test: Induction of apoptosis in human K562 cells assessed as viable cells at 2 ug/ml after 3 hrs using annexin-V-FITC and propidium iodide staining by flow cytometry (reference value: 93.69%); type: functional; conditions: K562, 3 h, read-out: Activity
K562 [21] = test: Induction of apoptosis in human K562 cells assessed as cell survival at 1 ug/ml after 8 hrs using annexin-V-FITC and propidium iodide staining by flow cytometry (reference value: 97.89%); type: functional; conditions: K562, 8 h, read-out: Activity
K562 [22] = test: Induction of apoptosis in human K562 cells assessed as […] of Bcl-2 at 2 ug/ml after 4 hrs by Western blot analysis; type: functional, cell-based
K562 [23] = test: Induction of apoptosis in human K562 cells assessed as cell survival at 1 ug/ml after 4 hrs using annexin-V-FITC and propidium iodide staining by flow cytometry (reference value: 97.89%); type: functional; conditions: K562, 4 h, read-out: Activity
K562 [24] = test: Induction of apoptosis in human K562 cells assessed as cell survival at 1 ug/ml after 1 hr using annexin-V-FITC and propidium iodide staining by flow cytometry (reference value: 97.89%); type: functional; conditions: K562, 1 h, read-out: Activity
K562 [25] = test: Induction of apoptosis in human K562 cells assessed as viable cells at 0.75 ug/ml after 5 hrs using annexin-V-FITC and propidium iodide staining by flow cytometry (reference value: 99.86%); type: functional; conditions: K562, 5 h, read-out: Activity

## CC(=O)N1CCN(c2ccc(OCC3COC(Cn4ccnc4)(c4ccc(Cl)cc4Cl)O3)cc2)CC1 (configuration not stated) [KETOCONAZOLE]
Candida albicans
  MIC: 0.02 µg/mL (≈ 0.0376 µM)

## COc1cc([C@@H]2c3cc4c(cc3[C@@H](O[C@@H]3O[C@@H]5CO[C@@H](C)O[C@H]5[C@H](O)[C@H]3O)[C@H]3COC(=O)[C@H]23)OCO4)cc(OC)c1O [ETOPOSIDE]
HepG2
  IC50: 6.41 µM

## CC(C)=C[C@H]1C[C@H](C)[C@]2(CC[C@]3(C)C[C@@H]4C(C)=CC(=O)[C@H]4/C(C=O)=C\C[C@H]32)O1 [3-ANHYDRO-6-EPI-OPHIOBOLIN A]
K562 [1]
  IC50: 35.6 µM
Staphylococcus aureus [2]
  MIC: > 100 µg/mL
HepG2
  IC50: 47.1 µM
Bacillus subtilis
  MIC: > 100 µg/mL
Staphylococcus aureus [3]
  MIC: > 100 µg/mL
Pseudomonas aeruginosa
  MIC: > 100 µg/mL
Candida albicans
  MIC: > 100 µg/mL

## CC(C)=C[C@H]1C[C@H](C)[C@]2(CC[C@]3(C)C[C@@H]4C(C)=CC(=O)[C@]4(O)/C(C=O)=C\C[C@H]32)O1
K562 [4]
  viability at 4 µg/mL: 1.78%
K562 [5]
  viability at 0.75 µg/mL: 61.5%
K562 [6]
  viability at 0.5 µg/mL: 88.3%
K562 [7]
  viability at 2 µg/mL: 25.9%
K562 [8]
  viability at 1 µg/mL: 27.5%
K562 [9]
  viability at 2 µg/mL: 26.9%
K562 [10]
  viability at 1 µg/mL: 69.7%
K562 [1]
  IC50: 4.06 µM
K562 [11]
  viability at 0.25 µg/mL: 96.6%
K562 [12]
  viability at 0.5 µg/mL: 87.5%
K562 [13]
  Activity: inactive
K562 [14]
  viability at 1 µg/mL: 49.6%
K562 [15]
  Activity: Active
Staphylococcus aureus [2]
  MIC: 12.5 µg/mL (≈ 31.4 µM)
K562 [16]
  viability at 1 µg/mL: 50.2%
HepG2
  IC50: 6.49 µM
K562 [17]
  viability at 4 µg/mL: 2.45%
K562 [18]
  Activity: Dose-dependent effect
K562 [19]
  Activity: tde
Bacillus subtilis
  MIC: 12.5 µg/mL (≈ 31.4 µM)
K562 [20]
  viability at 2 µg/mL: 32.6%
K562 [21]
  viability at 1 µg/mL: 5.86%
K562 [22]
  Activity: Active
K562 [23]
  viability at 1 µg/mL: 56%
Staphylococcus aureus [3]
  MIC: 12.5 µg/mL (≈ 31.4 µM)
K562 [24]
  viability at 1 µg/mL: 91.3%
Pseudomonas aeruginosa
  MIC: > 100 µg/mL
K562 [25]
  viability at 0.75 µg/mL: 62.8%
Candida albicans
  MIC: 50 µg/mL (≈ 125 µM)

## O=C(O)c1cn(C2CC2)c2cc(N3CCNCC3)c(F)cc2c1=O [CIPROFLOXACIN]
Pseudomonas aeruginosa
  MIC: 1 µg/mL (≈ 3.02 µM)

## CN[C@H](CC(C)C)C(=O)N[C@H]1C(=O)N[C@@H](CC(N)=O)C(=O)N[C@H]2C(=O)N[C@H]3C(=O)N[C@H](C(=O)N[C@H](C(=O)O)c4cc(O)cc(O)c4-c4cc3ccc4O)[C@H](O)c3ccc(c(Cl)c3)Oc3cc2cc(c3O[C@@H]2O[C@H](CO)[C@@H](O)[C@H](O)[C@H]2O[C@H]2C[C@](C)(N)[C@H](O)[C@H](C)O2)Oc2ccc(cc2Cl)[C@H]1O [VANCOMYCIN]
Bacillus subtilis
  MIC: 0.5 µg/mL (≈ 0.345 µM)

## CC(C)=C[C@H]1C[C@H](C)[C@]2(CC[C@]3(C)C[C@@H]4C(C)=CC(=O)[C@@H]4/C(C=O)=C\C[C@H]32)O1
K562 [1]
  IC50: 39.5 µM
Staphylococcus aureus [2]
  MIC: > 100 µg/mL
HepG2
  IC50: 55.7 µM
Bacillus subtilis
  MIC: > 100 µg/mL
Staphylococcus aureus [3]
  MIC: > 100 µg/mL
Pseudomonas aeruginosa
  MIC: > 100 µg/mL
Candida albicans
  MIC: > 100 µg/mL
